One assay addresses T1, GST-tagged truncated human mutant G2019S LRRK2 (Homo sapiens, UniProt Q5S007, G2019S).
T1 construct: GST-tagged truncated human mutant G2019S LRRK2; purchased Life Technologies Corporation (Carlsbad, CA)
The assay is described as follows: LRRK2 G2019S Km ATP LanthaScreen assay. The format is biochemical. To be noted: 134 μM ATP (Km ATP), LRRKtide substrate, mean of several tests. The method, boiled down:
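GST-tagged truncated human LRRK2 G2019S (1.25 nM enzyme solution) was preincubated 15 min with compound, then reacted 90 min at ambient temperature with fluorescein-LRRKtide (400 nM solution) and 134 μM ATP (Km) in Tris pH 8.5. EDTA stop; Tb anti-phospho-LRRKtide TR-FRET (520/495 ratio). IC50 from 4-parameter fits, mean of several runs.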
T1 sequence (Q5S007 970-2527 G2019S limits assumed): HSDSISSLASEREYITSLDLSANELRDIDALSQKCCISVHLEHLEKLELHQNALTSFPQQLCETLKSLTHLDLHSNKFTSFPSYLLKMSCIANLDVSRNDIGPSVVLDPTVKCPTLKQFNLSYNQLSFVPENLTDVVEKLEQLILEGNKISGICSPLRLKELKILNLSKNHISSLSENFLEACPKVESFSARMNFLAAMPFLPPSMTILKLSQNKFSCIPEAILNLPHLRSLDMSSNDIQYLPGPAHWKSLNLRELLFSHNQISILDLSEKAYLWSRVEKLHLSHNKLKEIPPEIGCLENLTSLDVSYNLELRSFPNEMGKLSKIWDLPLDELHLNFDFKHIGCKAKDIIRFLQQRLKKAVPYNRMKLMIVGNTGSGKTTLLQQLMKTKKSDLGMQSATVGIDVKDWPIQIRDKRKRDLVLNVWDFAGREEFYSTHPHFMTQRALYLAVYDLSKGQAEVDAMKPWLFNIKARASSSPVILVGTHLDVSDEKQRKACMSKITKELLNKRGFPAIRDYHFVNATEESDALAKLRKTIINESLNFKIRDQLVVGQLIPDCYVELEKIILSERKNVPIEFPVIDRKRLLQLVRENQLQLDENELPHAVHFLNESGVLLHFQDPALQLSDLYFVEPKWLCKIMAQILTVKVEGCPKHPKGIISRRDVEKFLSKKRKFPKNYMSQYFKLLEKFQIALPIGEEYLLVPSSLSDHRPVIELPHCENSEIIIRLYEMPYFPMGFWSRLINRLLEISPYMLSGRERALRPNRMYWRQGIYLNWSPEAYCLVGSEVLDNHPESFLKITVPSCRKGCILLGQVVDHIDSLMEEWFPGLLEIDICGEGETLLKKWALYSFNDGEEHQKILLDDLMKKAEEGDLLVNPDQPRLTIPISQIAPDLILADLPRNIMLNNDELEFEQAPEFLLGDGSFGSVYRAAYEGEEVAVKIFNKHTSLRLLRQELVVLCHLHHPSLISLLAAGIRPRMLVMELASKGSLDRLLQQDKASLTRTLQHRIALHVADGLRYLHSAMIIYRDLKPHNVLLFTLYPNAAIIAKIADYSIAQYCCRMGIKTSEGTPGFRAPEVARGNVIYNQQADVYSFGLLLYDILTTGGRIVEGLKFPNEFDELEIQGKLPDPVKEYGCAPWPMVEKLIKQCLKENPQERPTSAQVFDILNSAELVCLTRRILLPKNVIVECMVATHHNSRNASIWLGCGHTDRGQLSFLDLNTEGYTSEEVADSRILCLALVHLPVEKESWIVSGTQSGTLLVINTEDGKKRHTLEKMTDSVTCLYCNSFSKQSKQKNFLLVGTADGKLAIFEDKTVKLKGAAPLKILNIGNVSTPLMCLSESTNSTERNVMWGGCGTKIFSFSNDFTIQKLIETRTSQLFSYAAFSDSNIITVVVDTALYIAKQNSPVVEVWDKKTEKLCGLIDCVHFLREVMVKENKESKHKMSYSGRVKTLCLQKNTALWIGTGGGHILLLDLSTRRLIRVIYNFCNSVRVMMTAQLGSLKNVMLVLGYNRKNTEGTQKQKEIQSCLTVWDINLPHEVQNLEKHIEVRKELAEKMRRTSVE
For “(3R or 3S)-N-[6-[4-((3R,4R or 3S,4S)-4-fluoro-3-methyl-tetrahydrofuran-3-yl)piperazin-1-yl]-7-methyl-3-isoquinolyl]-5,5-dimethyl-tetrahydrofuran-3-carboxamide [Ex-10.93]”, the “LRRK2 pIC50” value is reported as 9.90.
Same read-out and setting: in the case of `Cc1cc2cnc(NC(=O)C3CC3c3ccccn3)cc2cc1N1CCN(C2(C)COCC2F)CC1` (stereo not shown) [Ex-9.19] it was 10.09.

The same assay, now with this note: 134 μM ATP (Km ATP), LRRKtide substrate, mean of several tests, read-out: LRRK2 pIC50 (converted).
Consider `Cc1cc2cnc(NC(=O)C3CC3c3cnn(C)c3C(F)(F)F)cc2cc1N1CCN(C2(C)CCOC2)CC1` (single isomer, unassigned) [Ex-10.34, (1R,2R or 1S,2S)-N-[7-methyl-6-[4-((R or S)-3-methyltetrahydrofuran-3-yl)piperazin-1-yl]-3-isoquinolyl]-2-[1-methyl-5-(trifluoromethyl)pyrazol-4-yl]cyclopropanecarboxamide], for which the IC50 is 69.2 nM.
On the same count and under the same terms, in the case of `CC1(N2CCN(c3cc4cc(NC(=O)C5CC56CC6)ncc4cc3Cl)CC2)COCC1O` (single isomer, unassigned) [Ex-2.15, (R or S)-N-(7-chloro-6-(4-((3R,4R or 3S,4S)-4-hydroxy-3-methyltetrahydrofuran-3-yl)piperazin-1-yl)isoquinolin-3-yl)spiro[2.2]pentane-1-carboxamide] it was 30.2 nM.
Still for that read-out and setting: in the case of `CCC1C(C(=O)Nc2cc3cc(N4CCN(C5(C)CCOC5)CC4)c(Cl)cc3cn2)C1c1cnn(C)c1` (single isomer, unassigned) [Ex-9.11] it was 1.15 nM; in that of `CC1(N2CCN(c3cc4cc(NC(=O)C5CCCOC5)ncc4cc3Cl)CC2)COCC1O` (single isomer, unassigned) [Ex-10.3, (3R or 3S)-N-(7-chloro-6-(4-((3R, 4R or 3S, 4S)-4-hydroxy-3-methyltetrahydrofuran-3-yl)piperazin-1-yl)isoquinolin-3-yl)tetrahydro-2H-pyran-3-carboxamide], 1.58 nM; in that of `O=C(Nc1cc2cc(N3CCN(C4COCC4O)CC3)c(Cl)cc2cn1)C1CC12CCOCC2` (single isomer, unassigned) [Ex-2.7, (R or S)-N-(7-chloro-6-(4-((3R,4R or 3S,4S)-4-hydroxytetrahydrofuran-3-yl)piperazin-1-yl)isoquinolin-3-yl)-6-oxaspiro[2.5]octane-1-carboxamide], 380 nM.
On the same count and under the same terms, in the case of `COC1COCC1(C)N1CCN(c2cc3cc(NC(=O)C4CC45CCOCC5)ncc3cc2Cl)CC1` (single isomer, unassigned) [Ex-5.3] it was 0.372 nM; in that of `CC(C)(O)C1CC1C(=O)Nc1cc2cc(N3CCN(C4(C)COCC4O)CC3)c(Cl)cc2cn1` (single isomer, unassigned) [Ex-10.6], 0.141 nM.
For the molecule `CC1C(C(=O)Nc2cc3cc(N4CCN(C5(C)COCC5F)CC4)c(Cl)cc3cn2)C1c1ccn(C)n1` (single isomer, unassigned) [Ex-10.16], the IC50 is 7.94 nM.
Still for that read-out and setting: in the case of `O=C(Nc1cc2cc(N3C(=O)C4CCC3C4)ccc2cn1)C1CC1` (single isomer, unassigned) [Ex-5.1] it was 9.55 nM.
On the same count and under the same terms, in the case of `CC(C)Cn1nccc1C1CC1C(=O)Nc1cc2cc(N3CCN(C4(C)COCC4O)CC3)c(Cl)cc2cn1` (single isomer, unassigned) [Ex-10.19, (1R,2R or 1S,2S)-N-[7-chloro-6-[4-((3R,4R or 3S,4S)-4-hydroxy-3-methyl-tetrahydrofuran-3-yl)piperazin-1-yl]-3-isoquinolyl]-2-(2-isobutylpyrazol-3-yl)cyclopropanecarboxamide] it was 42.7 nM.
With `CC1(N2CCN(c3cc4cc(NC(=O)C5CC5C(F)F)ncc4cc3Cl)CC2)COCC1F` (single isomer, unassigned) [Ex-10.78, (1R,2R or 1S,2S)-N-[7-chloro-6-[4-((3R,4R or 3S,4S)-4-fluoro-3-methyl-tetrahydrofuran-3-yl)piperazin-1-yl]-3-isoquinolyl]-2-(difluoromethyl)cyclopropanecarboxamide], the IC50 was 0.0813 nM.
For `O=C(Nc1cc2cc(N3CCN(C4COCC4O)CC3)c(Cl)cc2cn1)C1CC1` (single isomer, unassigned) [Ex-1.4, (3R,4R or 3S,4S)-N-(7-chloro-6-(4-(4-hydroxytetrahydrofuran-3-yl)piperazin-1-yl)isoquinolin-3-yl)cyclopropanecarboxamide], the IC50 was 57.5 nM.
Still for that read-out and setting: in the case of `CC1C(C(=O)Nc2cc3cc(N4CCN(C5(C)COCC5O)CC4)c(Cl)cc3cn2)C1c1ccn(C)n1` (single isomer, unassigned) [Ex-10.53, (1R,2R,3R, 1R,2S,3R, or 1S,2R,3S, or 1S,2S,3S)-N-[7-chloro-6-[4-((3R,4R or 3S,4S)-4-hydroxy-3-methyl-tetrahydrofuran-3-yl)piperazin-1-yl]-3-isoquinolyl]-2-methyl-3-(1-methylpyrazol-3-yl)cyclopropanecarboxamide] it was 0.0813 nM; in that of `COCC1CCC1C(=O)Nc1cc2cc(N3CCN(C4(C)COCC4O)CC3)c(Cl)cc2cn1` (single isomer, unassigned) [Ex-1.26, (1R,2S or 1R,2R, or 1S,2S, or 1S,2R)-N-(7-chloro-6-(4-((3R,4R)-4-hydroxy-3-methyltetrahydrofuran-3-yl)piperazin-1-yl)isoquinolin-3-yl)-2-(methoxymethyl)cyclobutane-1-carboxamide], 1.45 nM.
With `CCOC1CC1C(=O)Nc1cc2cc(N3CCN(C4(C)COCC4O)CC3)c(Cl)cc2cn1` (single isomer, unassigned) [Ex-10.11], the IC50 was 0.851 nM.
The same measure, in the same setting: in the case of `CCC1C(C(=O)Nc2cc3cc(N4CCN(C5(C)COCC5F)CC4)c(Cl)cc3cn2)C1c1ccccn1` (single isomer, unassigned) [Ex-10.89, (1R,2R,3R, or 1R,2S,3R, or 1S,2R,3S, or 1S,2S,3S)-N-[7-chloro-6-[4-((3R,4R or 3S,4S)-4-fluoro-3-methyl-tetrahydrofuran-3-yl)piperazin-1-yl]-3-isoquinolyl]-2-ethyl-3-(2-pyridyl)cyclopropanecarboxamide] it was 0.0813 nM; in that of `CC1(N2CCN(c3cc4cc(NC(=O)C5C6COCC65)ncc4cc3Cl)CC2)COCC1O` (single isomer, unassigned) [Ex-1.9, (1R or S)-N-(7-chloro-6-(4-((3R,4R or 3S,4S)-4-hydroxy-3-methyltetrahydrofuran-3-yl)piperazin-1-yl)isoquinolin-3-yl)-3-oxabicyclo[3.1.0]hexane-6-carboxamide], 0.794 nM.
Same read-out and setting: in the case of `CC1(N2CCN(c3cc4cc(NC(=O)C5CC5C(F)F)ncc4cc3Cl)CC2)COCC1F` (single isomer, unassigned) [Ex-10.75, (1R,2R or 1S,2S)-N-[7-chloro-6-[4-((3R,4R or 3S,4S)-4-fluoro-3-methyl-tetrahydrofuran-3-yl)piperazin-1-yl]-3-isoquinolyl]-2-(difluoromethyl)cyclopropanecarboxamide] it was 0.219 nM; in that of `CC1(N2CCN(c3cc4cc(NC(=O)C5CC56CCCOC6)ncc4cc3Cl)CC2)COCC1O` (single isomer, unassigned) [Ex-1.15, (1R,3S, or 1R,3R, or 1S,3S, or 1S,3R)-N-(7-chloro-6-(4-((3R,4R or 3S,4S)-4-hydroxy-3-methyltetrahydrofuran-3-yl)piperazin-1-yl)isoquinolin-3-yl)-5-oxaspiro[2.5]octane-1-carboxamide], 46.8 nM; in that of `CC1(N2CCN(c3cc4cc(NC(=O)C5CCC(F)(F)CO5)ncc4cc3Cl)CC2)COCC1O` (single isomer, unassigned) [Ex-10.1, (2R or 2S)-N-(7-chloro-6-((3R, 4R or 3S, 4S)-4-(4-hydroxy-3-methyltetrahydrofuran-3-yl)piperazin-1-yl)isoquinolin-3-yl)-5,5-difluorotetrahydro-2H-pyran-2-carboxamide], 0.933 nM.
Consider `Cc1cc2cnc(NC(=O)C3CC3c3ccccn3)cc2cc1N1CCN(C2(C)CCOC2)CC1` (single isomer, unassigned) [Ex-9.18], for which the IC50 was 100 nM.
Same read-out and setting: in the case of `CC1(N2CCN(c3cc4cc(NC(=O)C5CC56CCCOC6)ncc4cc3Cl)CC2)COCC1O` (single isomer, unassigned) [Ex-1.16, (1R,3S, or 1R,3R, or 1S,3S, or 1S,3R)-N-(7-chloro-6-(4-((3R,4R or 3S,4S)-4-hydroxy-3-methyltetrahydrofuran-3-yl)piperazin-1-yl)isoquinolin-3-yl)-5-oxaspiro[2.5]octane-1-carboxamide] it was 112 nM; in that of `CC1(N2CCN(c3cc4cc(NC(=O)C5CC5c5cccs5)ncc4cc3Cl)CC2)COCC1O` (single isomer, unassigned) [Ex-10.13, (1R,2R or 1R,2S)-N-[7-chloro-6-[4-((3R,4R or 3S,4S)-4-hydroxy-3-methyl-tetrahydrofuran-3-yl)piperazin-1-yl]-3-isoquinolyl]-2-(2-thienyl)cyclopropanecarboxamide], 0.0813 nM; in that of `CC1(N2CCN(c3cc4cc(NC(=O)C5CC56CCCOC6)ncc4cc3Cl)CC2)COCC1O` (single isomer, unassigned) [Ex-1.18, (1R,3S, or 1R,3R, or 1S,3S, or 1S,3R)-N-(7-chloro-6-(4-((3R,4R or 3S,4S)-4-hydroxy-3-methyltetrahydrofuran-3-yl)piperazin-1-yl)isoquinolin-3-yl)-5-oxaspiro[2.5]octane-1-carboxamide], 0.724 nM.
On the same count and under the same terms, in the case of `CC1(C)CC2(CCO1)CC2C(=O)Nc1cc2cc(N3CCN(C4(C)COCC4O)CC3)c(Cl)cc2cn1` (single isomer, unassigned) [Ex-7.5] it was 0.155 nM; in that of `CCc1cc2cnc(NC(=O)C3CC34CCOCC4)cc2cc1N1CCN(C2(C)COCC2O)CC1` (single isomer, unassigned) [Ex-12, (R or S)-N-(7-ethyl-6-(4-(4-(3R,4R or 3S,4S)-hydroxy-3-methyltetrahydrofuran-3-yl)piperazin-1-yl)isoquinolin-3-yl)-6-oxaspiro[2.5]octane-1-carboxamide], 0.525 nM.

Source of the values: patent publication US12516039B2, “N-linked isoquinoline amides as LRRK2 inhibitors, pharmaceutical compositions, and uses thereof” (Merck Sharp & Dohme LLC, priority 2020, dated 2026).
